Assay results: ChEMBL document CHEMBL3044879, “Design, synthesis, and preliminary in vitro and in vivo pharmacological evaluation of 4-{4-[2-(4-(2-substitutedquinoxalin-3-yl)piperazin-1-yl)ethyl]phenyl}thiazoles as atypical antipsychotic agents” (Med Chem Res, 2013)
Calls of active or inactive are those of the source. No cut-off for these calls is given here.

Experiments:
Mus musculus [1] = experiment: Antagonist activity at mesolimbic dopaminergic D2 receptor in Swiss albino Mus musculus (mouse) assessed as inhibition of apomorphine-induced cage climbing behavior at 10 mg/kg, ip administered 1 hr prior to apomorphine challenge measured after 20 min relative to vehicle-treated control; format: functional; conditions: route intraperitoneal
Mus musculus [2] = experiment: Antagonist activity at mesolimbic dopaminergic D2 receptor in Swiss albino Mus musculus (mouse) assessed as inhibition of apomorphine-induced cage climbing behavior at 10 mg/kg, ip administered 1 hr prior to apomorphine challenge measured after 10 min relative to vehicle-treated control; format: functional; conditions: route intraperitoneal
[3] = target: 5-hydroxytryptamine receptor 2A (Rattus norvegicus) (UniProt P14842); experiment: Displacement of [3H]ketanserin from 5-HT2A receptor in Rattus norvegicus (rat) cortex membrane homogenates at 10 uM after 90 min by liquid scintillation counting analysis
[4] = target: D(2) dopamine receptor (Rattus norvegicus) (UniProt P61169); experiment: Displacement of [3H]spiperone from D2 receptor in Rattus norvegicus (rat) straitum membrane homogenates at 10 uM after 60 min by liquid scintillation counting analysis
[5] = target: D(2) dopamine receptor (Rattus norvegicus) (UniProt P61169); experiment: Displacement of [3H]spiperone from D2 receptor in Rattus norvegicus (rat) straitum membrane homogenates at 100 uM after 60 min by liquid scintillation counting analysis
Mus musculus [6] = experiment: Antagonist activity at nigrostriatal dopaminergic D2 receptor in Swiss albino Mus musculus (mouse) assessed as maximum average cataleptic time at 10 mg/kg, ip after 1 to 5 hr relative to vehicle-treated control; format: organism-based; parameters: dose 10 mg/kg, route intraperitoneal; conditions: in vivo
Mus musculus [7] = experiment: Antagonist activity at central serotonergic 5-HT2A receptor in Swiss albino Mus musculus (mouse) assessed as inhibition of quipazine meleate-induced head twiches at 10 mg/kg, ip administered 1 hr prior to quipazine meleate challenge measured after 30 to 40 min relative to vehicle-treated control; format: functional; conditions: route intraperitoneal
Mus musculus [8] = experiment: Antagonist activity at mesolimbic dopaminergic D2 receptor in Swiss albino Mus musculus (mouse) assessed as inhibition of apomorphine-induced cage climbing behavior at 10 mg/kg, ip administered 1 hr prior to apomorphine challenge measured after 30 min relative to vehicle-treated control; format: functional; conditions: route intraperitoneal
Mus musculus [9] = experiment: Selectivity ratio of inhibition of 5-HT2A receptor in Swiss albino Mus musculus (mouse) to inhibition of dopaminergic D2 receptor in Swiss albino Mus musculus (mouse) at 10 mg/kg, ip; format: functional; conditions: route intraperitoneal
Mus musculus [10] = experiment: In vivo inhibition of dopaminergic D2 receptor in Swiss albino Mus musculus (mouse) at 10 mg/kg, ip relative to vehicle-treated control; format: functional; conditions: route intraperitoneal
Mus musculus [11] = experiment: In vivo inhibition of 5-HT2A receptor in Swiss albino Mus musculus (mouse) at 10 mg/kg, ip relative to vehicle-treated control; format: functional; conditions: route intraperitoneal
[12] = target: D(2) dopamine receptor (Rattus norvegicus) (UniProt P61169); experiment: Displacement of [3H]spiperone from dopaminergic D2 receptor in Rattus norvegicus (rat) straitum membrane homogenates up to 1 uM after 60 min by liquid scintillation counting analysis
[13] = target: 5-hydroxytryptamine receptor 2A (Rattus norvegicus) (UniProt P14842); experiment: Displacement of [3H]ketanserin from 5-HT2A receptor in Rattus norvegicus (rat) cortex membrane homogenates up to 1 uM after 90 min by liquid scintillation counting analysis
Mus musculus [14] = experiment: Antagonist activity at mesolimbic dopaminergic D2 receptor in Swiss albino Mus musculus (mouse) assessed as inhibition of apomorphine-induced cage climbing behavior at 0.6 mg/kg, ip administered 1 hr prior to apomorphine challenge measured after 20 min relative to vehicle-treated control; format: functional; conditions: route intraperitoneal
Mus musculus [15] = experiment: Antagonist activity at mesolimbic dopaminergic D2 receptor in Swiss albino Mus musculus (mouse) assessed as inhibition of apomorphine-induced cage climbing behavior at 0.6 mg/kg, ip administered 1 hr prior to apomorphine challenge measured after 10 min relative to vehicle-treated control; format: functional; conditions: route intraperitoneal
Mus musculus [16] = experiment: Antagonist activity at central serotonergic 5-HT2A receptor in Swiss albino Mus musculus (mouse) assessed as inhibition of quipazine meleate-induced head twiches at 0.6 mg/kg, ip administered 1 hr prior to quipazine meleate challenge measured after 30 to 40 min relative to vehicle-treated control; format: functional; conditions: route intraperitoneal
Mus musculus [17] = experiment: Antagonist activity at mesolimbic dopaminergic D2 receptor in Swiss albino Mus musculus (mouse) assessed as inhibition of apomorphine-induced cage climbing behavior at 0.6 mg/kg, ip administered 1 hr prior to apomorphine challenge measured after 30 min relative to vehicle-treated control; format: functional; conditions: route intraperitoneal
Mus musculus [18] = experiment: Antagonist activity at nigrostriatal dopaminergic D2 receptor in Swiss albino Mus musculus (mouse) assessed as maximum average cataleptic time at 0.6 mg/kg, ip after 1 to 5 hr relative to vehicle-treated control; format: organism-based; parameters: dose 0.6 mg/kg, route intraperitoneal; conditions: in vivo

Sequence of D(2) dopamine receptor (Rattus norvegicus) (P61169 whole entry): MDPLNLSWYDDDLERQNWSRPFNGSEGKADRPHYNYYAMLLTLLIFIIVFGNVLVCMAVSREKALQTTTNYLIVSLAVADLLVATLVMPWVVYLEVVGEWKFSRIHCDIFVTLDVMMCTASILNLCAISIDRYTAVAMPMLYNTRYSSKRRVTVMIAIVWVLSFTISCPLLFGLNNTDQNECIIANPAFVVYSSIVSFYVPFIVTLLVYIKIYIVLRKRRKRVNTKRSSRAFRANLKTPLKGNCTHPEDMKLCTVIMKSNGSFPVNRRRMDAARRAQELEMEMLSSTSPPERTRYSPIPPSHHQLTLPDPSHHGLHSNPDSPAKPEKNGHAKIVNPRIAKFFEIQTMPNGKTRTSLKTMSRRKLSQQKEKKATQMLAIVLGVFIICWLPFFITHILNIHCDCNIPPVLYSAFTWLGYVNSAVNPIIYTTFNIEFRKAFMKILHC
Sequence of 5-hydroxytryptamine receptor 2A (Rattus norvegicus) (P14842 whole entry): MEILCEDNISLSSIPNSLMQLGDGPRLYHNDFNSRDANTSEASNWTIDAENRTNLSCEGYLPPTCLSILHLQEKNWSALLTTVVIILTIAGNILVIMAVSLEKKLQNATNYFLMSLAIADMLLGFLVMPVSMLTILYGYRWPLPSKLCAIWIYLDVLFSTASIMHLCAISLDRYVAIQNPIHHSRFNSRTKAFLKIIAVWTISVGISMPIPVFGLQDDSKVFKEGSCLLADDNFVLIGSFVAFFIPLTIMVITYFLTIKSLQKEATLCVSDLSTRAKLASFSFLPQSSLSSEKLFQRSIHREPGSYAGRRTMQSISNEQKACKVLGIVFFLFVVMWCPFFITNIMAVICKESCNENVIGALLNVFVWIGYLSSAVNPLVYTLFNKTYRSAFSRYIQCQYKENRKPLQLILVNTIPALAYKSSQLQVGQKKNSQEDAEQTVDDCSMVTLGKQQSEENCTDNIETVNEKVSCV

SMILES | inhibition in vivo at 10 mg/kg (Mus musculus [1]) [%] | inhibition in vivo at 10 mg/kg (Mus musculus [2]) [%] | inhibition [3] [%] | inhibition [4] | inhibition [5] [%] | Time (Mus musculus [6]) [s] | inhibition in vivo at 10 mg/kg (Mus musculus [7]) [%] | inhibition in vivo at 10 mg/kg (Mus musculus [8]) [%] | Selectivity ratio (Mus musculus [9]) | Imax (Mus musculus [10]) [%] | inhibition in vivo at 10 mg/kg (Mus musculus [11]) [%] | inhibition [12] | inhibition [13] | inhibition in vivo at 0.6 mg/kg (Mus musculus [14]) [%] | inhibition in vivo at 0.6 mg/kg (Mus musculus [15]) [%] | inhibition in vivo at 0.6 mg/kg (Mus musculus [16]) [%] | inhibition in vivo at 0.6 mg/kg (Mus musculus [17]) [%] | Time (Mus musculus [18]) [s]
Cc1nc(-c2ccc(CCN3CCN(c4cnc5ccccc5n4)CC3)cc2)cs1 | 55 | 75 | 63 | inactive | 30 | 5.17 | 77 | 85 | 0.9059 | 85 | 77 | inactive | inactive | – | – | – | – | –
COc1nc2ccccc2nc1N1CCN(CCc2ccc(-c3csc(C)n3)cc2)CC1 | 70 | 85 | 68 | inactive | 82 | 6.25 | 62 | 65 | 0.7294 | 85 | 62 | inactive | inactive | – | – | – | – | –
COc1nc2ccccc2nc1N1CCN(CCc2ccc(-c3csc(N)n3)cc2)CC1 | 60 | 60 | 49 | inactive | 24 | 14.12 | 12 | 65 | 0.1846 | 65 | 12 | inactive | inactive | – | – | – | – | –
Nc1nc(-c2ccc(CCN3CCN(c4cnc5ccccc5n4)CC3)cc2)cs1 | 75 | 60 | 51 | inactive | 26 | 9.21 | 15 | 65 | 0.2 | 75 | 15 | inactive | inactive | – | – | – | – | –
CNc1nc(-c2ccc(CCN3CCN(c4nc5ccccc5nc4OC)CC3)cc2)cs1 | 85 | 60 | 58 | inactive | 40 | 10.67 | 51 | 65 | 0.6 | 85 | 51 | inactive | inactive | – | – | – | – | –
Cc1nc2n(c(=O)c1CCN1CCC(c3noc4cc(F)ccc34)CC1)CCCC2 [RISPERIDONE] | – | – | – | – | – | – | – | – | 1.0989 | 91 | 100 | – | – | 91 | 91 | 100 | 90 | 2.54
